Strand notation (5' to 3'): a small letter for the sugar, then the base; units joined by * are phosphorothioate-linked, units joined directly phosphodiester-linked; [ ] holds rarer units or linkages, { } end groups; capitals alone tell only the bases. e = 2'-O-(2-methoxyethyl) (MOE); [5mC] = 5-methylcytosine; d = 2'-deoxy (DNA)
Tested on: human Factor 7 mRNA
Test: Antisense inhibition of human Factor 7 with short (14-mer) oligonucleotides in HepB3 cells, electroporation 1,000 nM
Type: cell-based
Conditions: electroporation, 1,000 nM antisense oligonucleotide, approximately 24 hours, Factor 7 mRNA relative to untreated control cells
Outline: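 14-mer 2-10-2 MOE gapmers (full phosphorothioate, 5-methyl-C) electroporated at 1,000 nM into HepB3 cells at 20,000 cells/well. After ~24 h, Factor 7 mRNA by real-time RT-PCR, normalized to RiboGreen total RNA. Reported as % inhibition relative to untreated cells.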

435831 (antisense eG*eA*dT*d[5mC]*dT*dT*d[5mC]*dA*d[5mC]*dA*dT*dA*eG*e[5mC]) [compound 435831]
% Inhibition: 51%

435716 (antisense eT*eT*dT*dT*dG*d[5mC]*dA*dG*d[5mC]*d[5mC]*dA*d[5mC]*eT*e[5mC]) [compound 435716]
% Inhibition: 22%

435686 (antisense e[5mC]*eA*dG*dT*dG*dA*dG*dG*dA*d[5mC]*d[5mC]*dA*e[5mC]*eG) [compound 435686]
% Inhibition: 31%

435697 (antisense eA*eG*dT*dA*dG*d[5mC]*d[5mC]*dG*dG*d[5mC]*dA*d[5mC]*eA*eG) [compound 435697]
% Inhibition: 53%

435672 (antisense eA*e[5mC]*d[5mC]*d[5mC]*dA*dG*dA*dT*dG*dG*dT*dG*eT*eT) [compound 435672]
% Inhibition: 12%

435685 (antisense eA*eG*dG*dA*d[5mC]*d[5mC]*dA*d[5mC]*dG*dG*dG*d[5mC]*eT*eG) [compound 435685]
% Inhibition: 40%

435651 (antisense eA*e[5mC]*dA*dG*dT*dT*d[5mC]*d[5mC]*dG*dG*d[5mC]*d[5mC]*e[5mC]*eT) [compound 435651]
% Inhibition: 71%

435737 (antisense eG*eT*dG*d[5mC]*dA*dG*d[5mC]*d[5mC]*d[5mC]*dG*dG*d[5mC]*eA*e[5mC]) [compound 435737]
% Inhibition: 70%

435663 (antisense e[5mC]*e[5mC]*dA*d[5mC]*dA*dT*dG*dG*dA*dT*dA*dT*eT*e[5mC]) [compound 435663]
% Inhibition: 50%

435819 (antisense eT*eT*dT*dG*dT*d[5mC]*d[5mC]*dA*dG*dT*dA*dA*eG*eA) [compound 435819]
% Inhibition: 1%

435789 (antisense e[5mC]*eA*dT*dG*dT*dT*dA*dG*d[5mC]*d[5mC]*dT*dT*eT*eG) [compound 435789]
% Inhibition: 3%

435778 (antisense eG*e[5mC]*dT*dA*d[5mC]*dT*dG*dG*dG*d[5mC]*d[5mC]*dA*e[5mC]*eG) [compound 435778]
% Inhibition: 49%

435813 (antisense eG*eG*dA*dT*dG*d[5mC]*dA*d[5mC]*dA*d[5mC]*d[5mC]*dA*eG*eG) [compound 435813]
% Inhibition: 55%

435503 (antisense eT*eG*dT*dA*d[5mC]*dT*dG*dG*dG*dA*dG*dA*e[5mC]*e[5mC]) [compound 435503]
% Inhibition: 17%

435492 (antisense eA*e[5mC]*d[5mC]*d[5mC]*dT*dG*dG*dT*dG*dT*dA*d[5mC]*eA*e[5mC]) [compound 435492]
% Inhibition: 45%

435485 (antisense eT*e[5mC]*d[5mC]*dT*dG*dG*dG*dT*d[5mC]*dA*dT*d[5mC]*eA*eG) [compound 435485]
% Inhibition: 34%

435728 (antisense eA*e[5mC]*dA*d[5mC]*dA*dT*dG*dG*dA*dG*dT*d[5mC]*eA*eG) [compound 435728]
% Inhibition: 16%

435791 (antisense eA*eT*dG*dA*dG*dA*dA*dA*dT*dG*d[5mC]*dT*eT*eT) [compound 435791]
% Inhibition: 0%

435782 (antisense e[5mC]*eG*dT*dG*d[5mC]*dG*d[5mC]*dT*d[5mC]*dA*dG*d[5mC]*eT*e[5mC]) [compound 435782]
% Inhibition: 36%

435665 (antisense eA*eG*dG*dT*dA*dT*dT*dT*dT*dT*d[5mC]*d[5mC]*eA*e[5mC]) [compound 435665]
% Inhibition: 0%

435828 (antisense eG*eA*d[5mC]*d[5mC]*dT*dG*d[5mC]*d[5mC]*d[5mC]*dA*dT*dT*eT*eT) [compound 435828]
% Inhibition: 0%

435692 (antisense e[5mC]*eG*dG*dT*d[5mC]*d[5mC]*dA*dG*d[5mC]*dA*dG*d[5mC]*eT*eG) [compound 435692]
% Inhibition: 32%

435748 (antisense eT*e[5mC]*d[5mC]*d[5mC]*dA*dG*dG*dG*dT*d[5mC]*dT*d[5mC]*eT*eG) [compound 435748]
% Inhibition: 18%

435736 (antisense eA*eT*dG*d[5mC]*dA*dT*dG*dG*dT*dG*dA*dT*eG*e[5mC]) [compound 435736]
% Inhibition: 50%

435648 (antisense eG*eA*dA*dG*d[5mC]*dA*dG*dA*dT*dA*dT*dA*eG*eG) [compound 435648]
% Inhibition: 0%

435676 (antisense eG*eA*dT*dT*dT*dT*dG*dT*d[5mC]*dG*dA*dA*eA*e[5mC]) [compound 435676]
% Inhibition: 11%

435749 (antisense e[5mC]*eA*dG*d[5mC]*d[5mC]*dA*dG*dG*dG*d[5mC]*d[5mC]*dT*eG*eG) [compound 435749]
% Inhibition: 29%

435796 (antisense eT*eG*dA*d[5mC]*d[5mC]*dA*d[5mC]*dA*d[5mC]*dA*dT*dT*eT*e[5mC]) [compound 435796]
% Inhibition: 30%

435738 (antisense e[5mC]*eA*dG*dA*dG*dG*dA*dT*dG*dA*dG*d[5mC]*eA*e[5mC]) [compound 435738]
% Inhibition: 16%

435839 (antisense eG*eG*dT*d[5mC]*dA*dG*d[5mC]*dT*dG*dG*dT*d[5mC]*eT*eG) [compound 435839]
% Inhibition: 14%

435788 (antisense e[5mC]*e[5mC]*dT*dG*dT*dG*dA*dG*dT*dG*dT*dG*eA*eG) [compound 435788]
% Inhibition: 20%

435496 (antisense eG*eG*dA*dG*dA*d[5mC]*d[5mC]*d[5mC]*dT*dG*dG*dT*eG*eT) [compound 435496]
% Inhibition: 47%

435721 (antisense eT*eA*dA*dG*dG*dA*dG*dG*d[5mC]*dT*d[5mC]*dA*eG*e[5mC]) [compound 435721]
% Inhibition: 12%

435763 (antisense eA*eG*dG*dA*dG*dA*dA*dA*dG*dG*dT*d[5mC]*eA*eG) [compound 435763]
% Inhibition: 2%

435723 (antisense eG*e[5mC]*d[5mC]*dA*dG*d[5mC]*dA*dG*dA*dT*d[5mC]*dA*e[5mC]*eG) [compound 435723]
% Inhibition: 68%

435811 (antisense eG*eT*dG*dG*dT*d[5mC]*dA*dA*dG*dG*dA*dT*eG*eA) [compound 435811]
% Inhibition: 27%

435729 (antisense eA*e[5mC]*dA*dG*d[5mC]*dA*d[5mC]*dA*d[5mC]*dA*dT*dG*eG*eA) [compound 435729]
% Inhibition: 30%

435836 (antisense e[5mC]*eT*dA*dG*dG*dT*d[5mC]*dT*dG*d[5mC]*dA*dG*eG*eG) [compound 435836]
% Inhibition: 41%

435838 (antisense eT*e[5mC]*d[5mC]*dA*dT*dG*dG*dA*d[5mC]*dA*d[5mC]*dT*eA*eA) [compound 435838]
% Inhibition: 29%

435814 (antisense eT*eG*dA*d[5mC]*dG*dA*dG*dA*dG*dG*dA*d[5mC]*e[5mC]*eA) [compound 435814]
% Inhibition: 31%

435762 (antisense e[5mC]*eA*dG*dG*dT*dG*dT*dT*dA*dA*dG*dG*eT*eG) [compound 435762]
% Inhibition: 0%

435640 (antisense eT*eG*dT*dA*dA*dG*dA*dA*dA*dT*d[5mC]*d[5mC]*eA*eG) [compound 435640]
% Inhibition: 2%

435726 (antisense eG*e[5mC]*dA*dA*dT*dG*dA*dA*dG*dG*d[5mC]*dA*eG*eA) [compound 435726]
% Inhibition: 26%

435639 (antisense eT*e[5mC]*d[5mC]*dA*dG*dA*dA*d[5mC]*dA*dG*d[5mC]*dT*eT*e[5mC]) [compound 435639]
% Inhibition: 31%

435484 (antisense e[5mC]*e[5mC]*dT*dG*dG*dG*dT*d[5mC]*dA*dT*d[5mC]*dA*eG*e[5mC]) [compound 435484]
% Inhibition: 45%

435715 (antisense e[5mC]*eA*dG*d[5mC]*d[5mC]*dA*d[5mC]*dT*d[5mC]*dG*dA*dT*eG*eT) [compound 435715]
% Inhibition: 35%

435770 (antisense e[5mC]*eT*d[5mC]*dT*dG*dA*dG*dA*dG*dG*d[5mC]*d[5mC]*e[5mC]*e[5mC]) [compound 435770]
% Inhibition: 81%

435774 (antisense eG*eT*d[5mC]*d[5mC]*d[5mC]*dA*dG*dG*dG*dA*dA*dG*eG*e[5mC]) [compound 435774]
% Inhibition: 17%

435800 (antisense eG*eG*dA*d[5mC]*d[5mC]*d[5mC]*dA*dA*dA*dG*dT*dG*eG*eG) [compound 435800]
% Inhibition: 0%

435671 (antisense eT*e[5mC]*dA*d[5mC]*d[5mC]*dA*dA*d[5mC]*dA*dA*d[5mC]*dA*eG*eG) [compound 435671]
% Inhibition: 28%

435785 (antisense eA*eG*d[5mC]*dT*dT*d[5mC]*dT*d[5mC]*dA*d[5mC]*d[5mC]*dA*e[5mC]*eG) [compound 435785]
% Inhibition: 46%

435752 (antisense eT*eG*d[5mC]*dA*dG*d[5mC]*dT*dT*dG*d[5mC]*d[5mC]*dA*eG*eG) [compound 435752]
% Inhibition: 12%

435771 (antisense eG*eT*d[5mC]*dA*dT*dA*dA*dG*dG*d[5mC]*d[5mC]*dA*eT*eG) [compound 435771]
% Inhibition: 13%

435837 (antisense e[5mC]*eT*d[5mC]*dG*d[5mC]*d[5mC]*dT*dG*dG*dA*dA*dG*eG*eA) [compound 435837]
% Inhibition: 37%

435638 (antisense eA*eG*d[5mC]*d[5mC]*d[5mC]*dT*dG*dA*dA*dG*d[5mC]*d[5mC]*e[5mC]*eA) [compound 435638]
% Inhibition: 55%

435650 (antisense e[5mC]*e[5mC]*dG*dG*d[5mC]*d[5mC]*d[5mC]*dT*d[5mC]*dG*dA*dA*eG*eG) [compound 435650]
% Inhibition: 6%

435655 (antisense eA*e[5mC]*dA*dG*d[5mC]*d[5mC]*dG*d[5mC]*d[5mC]*dG*dT*dT*e[5mC]*eT) [compound 435655]
% Inhibition: 49%

435849 (antisense eT*eG*d[5mC]*d[5mC]*dG*dT*dA*dG*dT*dG*dG*d[5mC]*e[5mC]*eG) [compound 435849]
% Inhibition: 31%

435761 (antisense e[5mC]*eA*dG*dA*dT*dG*dA*dA*dA*dA*d[5mC]*dT*eT*eG) [compound 435761]
% Inhibition: 5%
